Data published in patent US20230190616A1, “COMPOUNDS USEFUL FOR THE TREATMENT AND/OR CARE OF THE SKIN, HAIR, NAILS AND/OR MUCOUS MEMBRANES” (LUBRIZOL ADVANCED MATERIALS, INC., priority 2018, published 2023).

Assays:
Assay type in all cases: cell-based
[1] = test system: Musclebind like protein 1 (MBNL1) in human skeletal muscle cells (hSkMc); assay: Quantification of Musclebind like protein 1 in human skeletal muscle cells by TR-FRET; details: for % MBNL1 vs basal level / MBNL1 levels compared to the basal control and to Argireline (in words): 0.5 mg/ml; for % MBNL1 vs basal level: 48 hours
Protocol: In vitro quantification of Musclebind like protein 1 in human skeletal muscle cells by Time resolved fluorescence resonance energy transfer.
MBNL1 induction by the peptides of the invention is evaluated by a Time resolved fluorescence resonance energy transfer (TR-FRET) assay. The aim of this study is to investigate the capacity of peptide candidates to increase MBNL-1 in human skeletal muscle cells (hSkMc).
hSkMc (Innoprot) are seeded in 12-well plates at a density of 1.5×10^4 cells/well in Skeletal Muscle Cell Growth Medium (Promocell). After 72 hours incubation, medium is removed and replaced with Skeletal Muscle Cell Differentiation Medium (Promocell). 48 hours after beginning cell differentiation, fresh differentiation medium with 0.5 mg/ml of test items is added. Treatment is continued for 48 hours and non-treated cells are used as basal control. After 48 hours of treatment, cell medium is removed and cell lysis buffer is added to wells. Immediately, plates are kept at -80° C. in order to improve protein extraction during the defrosting process. After 72 hours, cells are lysed by shaking the plates in an orbital rotor at room temperature for 45 minutes. Next, cell lysates are collected and assayed to quantify the level of MBNL-1 protein and total protein concentration.
MBNL-1 protein levels measurement is performed with Human MBNL1 Assay Kit (Cisbio) according to the manufacturer’s protocol. Briefly, the kit is used to perform a TR-FRET for MBNL1 quantification. The protein is detected with the antibodies provided in the kit and quantified by a fluorescence measurement. The quantification is carried out by using a microplate reader (ClarioStar™™™, BMG) set to 665 nm and 620 nm.
Total protein concentration of cell lysate is determined by using Pierce BCA Protein Assay Kit (Thermo Scientific) according to manufacturer’s protocol. In brief, after adding Working Reagent to the samples and the standards, the samples are incubated. Afterwards, color change is measured with an absorbance microplate reader (Clariostar™, BMG) at 562 nm. The total protein amount is used to normalize the level of MBNL1 protein concentration obtained by the TR-FRET test in the samples.

[2] = test system: collagen type I in primary human dermal fibroblasts (HDFn); assay: Type I collagen synthesis on human dermal fibroblasts by ELISA; details: 0.5 µg/ml; for % Collagen induction: 48 hours
Excerpt: In vitro study of type I collagen synthesis on human dermal fibroblasts by Enzyme-Linked Immunosorbent Assay.
Collagen type I is the principal collagen of skin. This molecule, which is mainly produced by fibroblasts, is responsible for the strength and resiliency of this tissue. For this reason, in vitro quantification of collagen induction by cosmetic products on human dermal fibroblasts provides information about their potential anti-aging effects on the skin. Collagen induction by the peptides of the invention is evaluated with an Enzyme-Linked Immunosorbent Assay (ELISA). The aim of this study is to investigate the ability of a product to induce collagen type I synthesis in primary human dermal fibroblasts isolated from neonatal skin (HDFn).
HDFn (Cascade) are seeded at a density of 5×10^4 in 48-well plates. After 24-hour incubation, fresh medium with scalar dilutions of the test items at 0.5 µg/ml are added. Non-treated cells are used as basal control. The cells are treated for 48 hours. Then, the medium of the wells is collected and transferred into a 96-well plate. A standard calibration curve prepared with calf skin type I collagen (Sigma) is transferred into the plate as well. The plate is left overnight in order to coat type I collagen into its surface. After that, collagen I is detected with an anti-collagen type I antibody (Sigma). The primary antibody is then recognized by a secondary antibody IgG-HRP (molecular probes). 3,3,5,5-tetramethylbenzidine liquid substrate (TMB, Sigma) is added to measure the amount of secondary antibody attached. The color produced by this reaction is measured in a microtiter plate reader (Clariostar™, BMG) and type I collagen concentration is determined using a linear regression of the standard curve.

[3] = test system: human neuroblastoma cell line (SH-SY5Y); assay: Inhibition of noradrenaline (NA) release from human neuroblastoma cells, ELISA
Excerpt: Inhibition of noradrenaline release from human neuroblastoma cells.
Release of neurotransmitters by exocytosis in neuromuscular junctions from peripheral neurons to skeletal muscle allows muscle contraction. Face muscles are subject to said contraction and facial muscle contraction is more frequent around eyes, mouth and forehead than elsewhere in the face. With age, continuous release of neurotransmitters into neuromuscular junctions and decrease of elasticity contribute to the increase of facial wrinkles and permanent expression lines. Compounds able to block or decrease exocytosis on neuromuscular junction sites are thus good candidates for the cosmetic treatment of unaesthetic wrinkles. In vitro induction of the neurotransmitter Noradrenaline (NA) release in a human neuroblastoma cell line (SH-SY5Y) is considered a direct and reliable method for exocytosis measurement. The aim of this study is to evaluate the efficacy of the peptides of the invention on the inhibition of neuronal exocytosis by means of measuring the levels of NA release in SH-SY5Y cells by Enzyme-linked Immunosorbent Assay (ELISA).
SH-SY5Y (ECACC) cells are seeded in 12-well plates at a density of 1×10^6 cells/well. After a 6-day culture, medium is removed from wells and cells are treated for 60 minutes with the peptides of the invention dissolved in Hank’s Balanced Salt Solution (HBSS, Life Technologies) at 1 and 2.5 mg/ml. Cells treated with HBSS alone are used as a basal control. To mobilize NA vesicles, supernatants are removed and 100 nM Tetradecanoylphorbol-13-acetate (TPA, Sigma) is dissolved in the presence of test items in HBSS or dissolved in HBSS alone in the case of the basal control. After this, solutions with TPA are removed and NA release is induced by the addition of 10 µM lonomycin (Epica) with 100 nM TPA dissolved in the presence of test items in HBSS or dissolved in HBSS alone in the case of the basal control. Afterwards, the medium in the wells, containing released NA, is collected and centrifuged. Supernatants obtained are used for quantification of NA by ELISA with noradrenalin ELISA kit (IBL International) following manufacturer’s instructions. In brief, direct sandwich ELISA is performed with a plate pre-coated with an anti-NA antibody. The color obtained after substrate addition is directly proportional to the amount of NA present in each condition tested. Absorbance is read in a microplate absorbance reader (Clariostar™, BMG) at 405 nm. The percentage of NA release for each condition is calculated respect to basal control.

[4] = test system: Musclebind like protein 1 (MBNL1) in human skeletal muscle cells (hSkMc); assay: Quantification of Musclebind like protein 1 in human skeletal muscle cells by TR-FRET; details: 1 mg/ml; 48 hours
[5] = hSkMc, normalized to total protein
[6] = HDFn, versus non-treated cells, mean of 5 assays
[7] = 1 mg/ml, SH-SY5Y, respect to basal control, mean of 3 assays
[8] = 2.5 mg/ml, SH-SY5Y, respect to basal control, mean of 3 assays

## Ac-L-Arg-L-Arg-L-Gln-D-Met-L-Asp-L-Glu-NH2 [PEP-30]
[1]; [5]
  % MBNL1 vs basal level: 160.0%
[1]; hSkMc
  MBNL1 levels compared to the basal control and to Argireline (in words): increase MBNL1 levels

## Ac-L-Arg-L-Arg-D-Gln-D-Met-L-Glu-L-Glu-NH2 [PEP-24]
[2]; [6]
  % Collagen induction: 104.7%
[1]; [5]
  % MBNL1 vs basal level: 120.9%
[1]; hSkMc
  MBNL1 levels compared to the basal control and to Argireline (in words): increase MBNL1 levels
[3]; [7]
  % Released NA: 65.8%
[3]; [8]
  % Released NA: 52.3%

## Ac-L-Arg-L-Arg-L-Gln-L-Met-L-Glu-L-Glu-NH2 [PEP-21]
[2]; [6]
  % Collagen induction: 119.3%
[2]; HDFn
  Efficacy in increasing collagen type I compared with Argireline (in words): even higher
[1]; [5]
  % MBNL1 vs basal level: 91.9%
[3]; [7]
  % Released NA: 78.9%
[3]; [8]
  % Released NA: 43.8%

## Ac-L-Arg-L-Arg-L-Gln-D-Met-L-Glu-NH2 [PEP-44]
[1]; [5]
  % MBNL1 vs basal level: 137.8%
[1]; hSkMc
  MBNL1 levels compared to the basal control and to Argireline (in words): increase MBNL1 levels

## Ac-L-Arg-L-Gln-D-Met-L-Glu-L-Glu-NH2 [PEP-43]
[1]; [5]
  % MBNL1 vs basal level: 112.4%
[1]; hSkMc
  MBNL1 levels compared to the basal control and to Argireline (in words): increase MBNL1 levels

## Ac-L-Arg-L-Arg-L-Gln-D-Leu-L-Glu-L-Glu-NH2 [PEP-37]
[1]; [5]
  % MBNL1 vs basal level: 140.3%
[1]; hSkMc
  MBNL1 levels compared to the basal control and to Argireline (in words): increase MBNL1 levels

## Ac-L-Arg-L-Arg-L-Gln-D-Met-L-Glu-L-Gln-NH2 [PEP-31]
[1]; [5]
  % MBNL1 vs basal level: 161.3%
[1]; hSkMc
  MBNL1 levels compared to the basal control and to Argireline (in words): increase MBNL1 levels

## Ac-L-Lys-L-Arg-L-Gln-D-Met-L-Glu-L-Glu-NH2 [PEP-36]
[1]; [5]
  % MBNL1 vs basal level: 117.6%
[1]; hSkMc
  MBNL1 levels compared to the basal control and to Argireline (in words): increase MBNL1 levels

## Ac-L-Arg-L-Arg-L-Gln-D-Met-L-Glu-L-Glu-OH [PEP-26]
[1]; [5]
  % MBNL1 vs basal level: 109.6%
[1]; hSkMc
  MBNL1 levels compared to the basal control and to Argireline (in words): increase MBNL1 levels

## ARGIRELINE [Ac—Glu—Glu—Met—Gln—Arg—Arg, reference compound]
[2]
  % Collagen induction: 109.8%
[1]
  Effect on MBNL1 (in words): no effect
  % MBNL1 vs basal level: 96.6%
[4]
  % MBNL1 vs basal level: 86.9%
[3]; 1 mg/ml
  % Released NA: 79.6%
[3]; 2.5 mg/ml
  % Released NA: 63.5%

## Ac-L-Arg-L-Arg-L-Asp-D-Met-L-Glu-L-Glu-NH2 [PEP-41]
[1]; [5]
  % MBNL1 vs basal level: 151.3%
[1]; hSkMc
  MBNL1 levels compared to the basal control and to Argireline (in words): increase MBNL1 levels

## H-L-Arg-L-Arg-L-Gln-D-Met-L-Glu-L-Glu-NH2 [PEP-27]
[1]; [5]
  % MBNL1 vs basal level: 144.2%
[1]; hSkMc
  MBNL1 levels compared to the basal control and to Argireline (in words): increase MBNL1 levels

## Ac-L-Arg-L-Lys-L-Gln-D-Met-L-Glu-L-Glu-NH2 [PEP-35]
[1]; [5]
  % MBNL1 vs basal level: 144.3%
[1]; hSkMc
  MBNL1 levels compared to the basal control and to Argireline (in words): increase MBNL1 levels

## Ac-L-Ala-L-Arg-L-Arg-L-Gln-D-Met-L-Glu-L-Glu-L-Ala-NH2 [PEP-42]
[1]; [5]
  % MBNL1 vs basal level: 144.4%
[1]; hSkMc
  MBNL1 levels compared to the basal control and to Argireline (in words): increase MBNL1 levels
